The text below walks through data of patent US12344587B2, “Synthetic retinoids for use in RAR activation” (UNIVERSITY OF DURHAM, priority 2019, dated 2025).

One data set relates to SH-SY5Y cells. Kind of data set: Induction of neurite outgrowth. It counts as cell-based. To be noted: Homo sapiens, 120 h, 10 nM, 5 days, read-out: Neurite Outgrowth Fold increase. Here is the method: SY—SY5Y cells were plated at 10,000 cells/well in 12-well plates containing acid-treated/poly-L-lysine-coated coverslips. After 24 hours, each retinoid was added to the medium at a concentration of 10 nM and the plates were incubated for 5 days. After retinoid treatment, SH-SY5Y cells on coverslips were washed twice in PBS, fixed in 4% paraformaldehyde (PFA) for 20 minutes at room temperature, and washed twice with PBS.
For immunocytochemical staining of neurites, cells on coverslips were washed three times in PBS, and incubated in blocking solution (10% donkey serum and 0.1% triton X-100 in PBS) for 1 hour at room temperature. Cells were then labelled by incubation overnight at 4° C. with β-III tubulin primary antibody (Sigma-Aldrich) diluted 1:1000 in blocking buffer. Following incubation overnight, cells were washed three times with PBS containing 0.1% Triton X-100 solution (PBST) before incubation with anti-mouse monoclonal secondary antibody (1:300 in PBST; Jackson Immunoresearch) for 2 hours at room temperature. Finally, after three washes in PBST and a final wash in PBS, the coverslips were mounted on slides and stored at 4° C.
ImageJ software with the NeuronJ plugin was used to quantify neurite outgrowth on stained cells. For each experiment, 10 different randomly selected images were taken from each cover slip using a Nikon Eclipse E400 fluorescence microscope. Each image was converted into an 8-bit image (necessary for the NeuronJ plugin) and optimised with the brightness and contrast tool in GIMP (GNU Image Manipulation Program). For each image, individual traces were drawn for each clearly-identifiable neurite using the tracing tool in the NeuronJ plugin. Neurite length was measured in pixels and transformed into the corresponding length in μm depending on the magnification used. The average neurite length for each image was calculated by dividing total neurite length by the total number of neurites per image. Ten images per cover slip were measured and the mean calculated for the coverslip overall. Coverslips were in triplicate for each retinoid and concentration.

Another data set has as its system ERK1/2. Kind of data set: ERK1/2 phosphorylation assay, AlphaLISA SureFire Ultra (non-genomic activity). The data set is classed as cell-based. On the set-up: Non-genomic activity (ERK½ Phosphorylation Assay) Efficacy (Emax): unit not given here. To be noted: SH-SY5Y cells, serum-free, 30 minutes stimulation. As to the method: The non-genomic activity of synthetic retinoids was evaluated by measuring their ability to induce phosphorylation of ERK1/2 using the AlphaLISA® SureFire® Ultra ERK1/2 kit.
In this assay, SH-SY5Y cells (100,000 cells/well) were plated in 96-well plates and serum-starved in DMEM for 24 hours. Retinoids were tested at concentrations from 10−5 M to 10−11 M and at a final concentration of 0.1% DMSO in the medium. The assay was carried out on the SH-SY5Y cells in serum-free DMEM, cells were stimulated by retinoid for 30 minutes at 37° C.
At the end of the assay, the medium was removed, and cells were lysed in 50 μl of freshly prepared 1× lysis buffer (supplied in the kit). The 96-well plate was agitated on an orbital shaker (SO1, Stuart Scientific) at approximately 350 rpm for 10 minutes at room temperature.
In the meantime, the activation buffer was diluted 25-fold in the reaction buffers. Under green light in a dark room, the acceptor beads were diluted 50-fold in the freshly prepared reaction mix while the donor beads were diluted 50-fold in dilution buffer to obtain two final reaction mixtures.
10 μl of cell lysate was then transferred per well into 384-well white Proxiplates plates (PerkinElmer) and 5 μl of each prepared acceptor and donor reaction mixture was added under green light in a dark room. Plates were wrapped with aluminium foil and incubated at room temperature for at least 3 hours. Readings were taken using an Envision system (PerkinElmer Life Sciences) using the AlphaScreen® settings.
In general terms: Alpha assays give light when donor and acceptor beads are brought close together.

The subject of data set [1] is retinoic acid response element (RARE). Put plainly: X-Gal RA based reporter assay (genomic activity). It counts as cell-based. To be noted: Sil-15 reporter cells, overnight incubation. Here is the method: The genomic activity of synthetic retinoids was evaluated by determining their efficiency of inducing transcription using the X-Gal Assay. The X-Gal Assay utilizes Sil-15 reporter cells in which the transcription of the LacZ gene is under control of a promoter linked to a retinoic acid response element (RARE). After treatment of the reporter cells with retinoids, the ability of the compounds to induce transcription can be attained by monitoring and quantifying the activity of β-galactosidase produced by the reporter cells.
Sil-15 cells were plated at 100,000 cells per well in 96-well plates coated in 0.1% gelatin. The following day, serial dilutions of retinoid ligands, prepared in Dulbecco's Modified Eagle's Medium (DMEM) containing 10% foetal calf serum (FCS) were added at concentrations from 10^−6 M to 10^−14 M and the plates were incubated overnight. All concentrations for the ATRA standard curve and the other retinoid ligands were tested in triplicate.
The next day, the assay plates were washed twice with phosphate buffered saline (PBS), fixed with 100 μl per well of 1% glutaraldehyde and 1 mM MgCl2 in PBS for 15 minutes and washed twice with PBS. β-galactosidase activity was detected by the addition of 100 μl of freshly-prepared 0.2% X-Gal in 1 mM MgCl2, 3.3 mM potassium ferricyanide and 3.3 mM potassium ferrocyanide in PBS per well. Plates were incubated for 6 hours at 37° C. in 5% CO2 and colour change was detected by reading the plates at 650 nm on an Emax Precision Microplate Reader (Molecular Devices).
(In general: In a reporter assay the amount or activity of a reporter protein is the signal.)

A short description of data set [2]: Turbidimetric aqueous solubility. It counts as physicochemical. To be noted: aqueous buffer, kinetic from dmso stock, 0.01 M phosphate buffered saline pH 7.4, 1% DMSO, 37° C. Here is the method:
Test compound (10 mM in DMSO) is serially diluted to give solutions of 0.1, 0.3, 1 and 3 mM in DMSO. Each test compound concentration is then further diluted 1 in 100 in buffer (0.01 M phosphate buffered saline pH 7.4) so that the final DMSO concentration was 1% and the final test compound concentrations were 1, 3, 10, 30 and 100 μM. The experiment was performed at 37° C. and each concentration sample was incubated in 7 replicate wells. The plates were incubated for 2 hr at 37° C. before the absorbance was measured at 620 nm. The solubility of the sample was estimated from the concentration of test compound that produced an increase in absorbance above vehicle control (i.e., 1% DMSO in buffer).

Values after ≈ are worked out from the molar mass of the structure shown.

As to `CC1(C)CCC(C)(C)c2cc(C#Cc3ccc(C(=O)O)cc3)ccc21` [EC23, reference compound], the fold induction at 0.01 µM in the data set with SH-SY5Y cells amounted to 2.2. The concentration giving a half-maximal response (EC50) (as a rule, the concentration giving half of the maximal effect) in the data set with ERK1/2 (Homo sapiens, 0.5 h, read-out: Non-genomic activity (ERK½ Phosphorylation Assay) Potency (EC50)) is 31.8 nM; in data set [1] (read-out: Genomic Activity (X-Gal RA Based Reporter Assay) Potency (EC50)), 0.128 nM. The “Non-genomic activity (ERK½ Phosphorylation Assay) Efficacy (Emax)” value with ERK1/2 is reported as 91.93. Besides, in data set [1], the “Genomic Activity (X-Gal RA Based Reporter Assay) Efficacy (Emax)” value was determined as 169.18. Moreover, in data set [2], the solubility (as a rule, how much of the substance goes into solution per volume) at 2 h is 6.5 µM (≈ 2.16 µg/mL).
